Structures can show the parent of a compound that is named as a salt. Blank lines part the entries; values can stand above or below the compound they belong to.
Assays:
[1] = Storage of anhydrous salt under humidity / atmospheric moisture; format: physicochemical
Text: When 4-chlorobenzenesulfonic acid is used in the above procedure the corresponding anhydrous 4-chlorobenzenesulfonic acid addition salt is obtained.

[2] = Stability on storage at 50° C. for three weeks, retained potency (HPLC); format: physicochemical; details: 30240 min
Procedure: (§1) In the solubility and stability studies above samples of the materials were assayed by HPLC using a Chromegabond C-8* column (4.6 mm internal diameter×30 cm.). The mobile phase consisted of 30% by weight acetonitrile in pH 3 phosphate buffer (0.1 M). Flow rate, 1.6 ml/minute. Detection was by UV at 230 nm.

[3] = Apparent solubility of sultamicillin salts in water and simulated gastric juice (without pepsin, pH 1.2), HPLC; format: physicochemical; details: for Final pH, Simulated Gastric Juice: final pH of the solubility test in simulated gastric juice; for Final pH, Water: final pH of the solubility test in water; for Apparent Solubility, Simulated Gastric Juice: simulated gastric juice without pepsin, pH 1.2, 30 minutes agitation; for Apparent Solubility, Simulated Gastric Juice / Apparent Solubility, Water: 30 min; for Apparent Solubility, Water: 30 minutes vigorous agitation
Procedure: The solubility of the salts in water and simulated gastric juice without pepsin (pH 1.2) were compared. Equilibrium solubility was not determined since the compounds are not entirely stable in aqueous systems for the extended time required to reach equilibrium. Therefore, the apparent solubility was determined by vigorous agitation for 30 minutes with the solvent. The resulting mixture was then filtered and the amount of compound in solution determined by high pressure liquid chromatography (HPLC).
as §1

[4] = system: Pasteurella histolytica (59B010); details: beta-lactamase mediated resistance; high concentrations alone or combined
[5] = system: Sarcina lutea (ATCCC 9341); details: no beta-lactamase; sulbactam up to 100 μg./ml.
[6] = Stability and solubility of sultamicillin forms; format: physicochemical; details: for stability (in words): solid state / handling

potency retained upon storage ([2]; listed as 4-chlorobenzenesulfonae.2H2 O, dihydrate): 100% | Final pH, Simulated Gastric Juice ([3]; dihydrate): 1.1 | Final pH, Water ([3]; dihydrate): 3.8 | Apparent Solubility, Simulated Gastric Juice ([3]; dihydrate): 6300 µg/mL | Apparent Solubility, Water ([3]; dihydrate): 3300 µg/mL
Structure (SMILES): CC1(C)S[C@@H]2[C@H](NC(=O)[C@H](N)c3ccccc3)C(=O)N2[C@H]1C(=O)OCOC(=O)[C@@H]1N2C(=O)C[C@H]2S(=O)(=O)C1(C)C [4-Chlorobenzenesulfonate.2H2 O, 1,1-Dioxopenicillanoyloxymethyl 6-[D-(2-amino-2-phenylacetamido)]penicillanate 4-chlorobenzenesulfonate dihydrate]

dihydrate formation upon exposure to atmospheric moisture ([1]; 48 hours): forms a dihydrate
Structure (SMILES): CC1(C)S[C@@H]2[C@H](NC(=O)[C@H](N)c3ccccc3)C(=O)N2[C@H]1C(=O)OCOC(=O)[C@@H]1N2C(=O)C[C@H]2S(=O)(=O)C1(C)C

potency retained upon storage ([2]; benzenesulfonate dihydrate): 97% | Final pH, Simulated Gastric Juice ([3]; benzenesulfonate dihydrate): 2.0 | Final pH, Water ([3]; benzenesulfonate dihydrate): 3.4 | Apparent Solubility, Simulated Gastric Juice ([3]; benzenesulfonate dihydrate): 1800 µg/mL | Apparent Solubility, Water ([3]; benzenesulfonate dihydrate): 2150 µg/mL
Structure (SMILES): CC1(C)S[C@@H]2[C@H](NC(=O)[C@H](N)c3ccccc3)C(=O)N2[C@H]1C(=O)OCOC(=O)[C@@H]1N2C(=O)C[C@H]2S(=O)(=O)C1(C)C [Benzenesulfonate.2H2 O, 1,1-Dioxopenicillanoyloxymethyl 6-[D-(2-amino-2-phenylacetamido)]penicillanate benzenesulfonate dihydrate]

potency retained upon storage ([2]; listed as hydrochloride salt, hydrochloride): 67% | solubility in water / aqueous systems (in words) [6]: highly soluble in water | stability in water (in words) ([6]; aqueous): subject to hydrolytic decomposition | stability (in words) ([6]; hydrochloride): poor solid state stability | Final pH, Simulated Gastric Juice ([3]; hydrochloride): 1.12 | Final pH, Water ([3]; hydrochloride): 2.0 | Apparent Solubility, Simulated Gastric Juice ([3]; hydrochloride): > 79000 µg/mL | Apparent Solubility, Water ([3]; hydrochloride): > 94000 µg/mL
Structure (SMILES): CC1(C)S[C@@H]2[C@H](NC(=O)[C@H](N)c3ccccc3)C(=O)N2[C@H]1C(=O)OCOC(=O)[C@@H]1N2C(=O)C[C@H]2S(=O)(=O)C1(C)C [Hydrochloride, 1,1-Dioxopenicillanoyloxymethyl 6-[D-(2-amino-2-phenylacetamido)]penicillanate hydrochloride]

The remaining lines, values behind:

Structure (SMILES): CC1(C)S[C@@H]2[C@H](NC(=O)[C@H](N)c3ccccc3)C(=O)N2[C@H]1C(=O)OCOC(=O)[C@@H]1N2C(=O)C[C@H]2S(=O)(=O)C1(C)C [anhydrous salt, Anhydrous 1,1-Dioxopenicillanoyloxymethyl 6-[D-(2-amino-2-phenylacetamido)]penicillanate benzenesulfonate]
water content of dihydrate formed upon storage ([1]; 50% relative humidity, 30 hours, by weight): 4.5%

Structure (SMILES): CC1(C)S[C@@H]2[C@H](NC(=O)[C@H](N)c3ccccc3)C(=O)N2[C@H]1C(=O)O [ampicillin]
susceptibility / synergy, Pasteurella histolytica [4]: insensitivity | susceptibility / synergy, Sarcina lutea [5]: susceptible

Structure (SMILES): CC1(C)S[C@@H]2[C@H](NC(=O)[C@H](N)c3ccccc3)C(=O)N2[C@H]1C(=O)OCOC(=O)[C@@H]1N2C(=O)C[C@H]2S(=O)(=O)C1(C)C [Sultamicillin free base, 1,1-dioxopenicillanoyloxymethyl 6-[D-(2-amino-2-phenylacetamido)]penicillanate]
stability (in words) [6]: poor handling characteristics and inadequate stability

Structure (SMILES): CC1(C)[C@H](C(=O)O)N2C(=O)C[C@H]2S1(=O)=O [sulbactam, penicillanic acid 1,1-dioxide]
susceptibility / synergy, Pasteurella histolytica [4]: insensitivity | susceptibility / synergy, Sarcina lutea [5]: insensitive to sulbactam at concentrations as high as 100 μg./ml.
